Results as given in patent publication US12195456B1, “Single molecules having mixed CDK4, CDK6, PLK1 targeting properties” (priority 2019, dated 2025).
“Also recorded” adds a separate entry of the source.

Assays:
MDA-MB-231 TNBC cells = assay: In vitro growth inhibition (SRB), MDA-MB-231; format: cell-based
Procedure: (§1) In vitro growth inhibition assay: Growth inhibitory potency was evaluated using the SRB assay. Briefly, cells were plated in 96-well in triplicate and treated with drugs (0.0065 μM to 100 μM) 24 h after seeding. Following drug treatment, the cells were fixed using 50 μl of cold TCA (50%) for 1 h at 4° C., washed five times with tap water, and stained for 30 min at room temperature with SRB (0.4%) in acetic acid (0.5%). The plates were subsequently rinsed five times with acetic acid (1%) and allowed to air dry. The resulting purple residue was dissolved in Tris base (200 μl, 10 mM), and optical densities read on a ELx808 BioTek microplate reader. […] values were determined using the GraphPad Prism software.

SUM159 TNBC xenografts = assay: Orthotopic SUM159 TNBC xenograft (mammary fat pad); format: in vivo, NSG mice
Procedure: We further assessed our compound on breast cancer tumorigenesis in vivo, through orthotopic transplantation of SUM159 TNBC cells into the mammary fat pad of NSG mice. […] Drugs were administered through i.p. daily injections for two weeks (50 mg/kg) and tumor volumes were measured, as per our team optimized protocol^10,19.
In vivo studies: All mice were housed and handled in accordance to the approved guidelines of the Canadian Council on Animal Care (CCAC) “Guide to the Care and Use of Experimental Animals” and under the conditions and procedures approved by the Animal Care Committee of McGill University (AUP #7497). The NSG mouse breeders were purchased from Jackson Laboratory (California, US). Female and male NSG mice between 7 and 9 weeks of age were bred and maintained in the animal facility of the Research Institute of the McGill University Health Center, as per the guidelines of the McGill University Animal Care Committee.
Xenograft model: Human breast cancer cells, SUM159 (1×10^6/mouse) were diluted in 1:1 with Matrigel and then inoculated in 8-week old, female NSG mice by mammary fat pad route to generate breast cancer tumor. Tumor sizes were measured with a digital electronic caliper three times per week to reach maximum volume of 1000 mm3 prior to euthanasia. Tumor volumes were calculated according to the following formula: [4/3×π×(Length/2)×(Width/2)2] to generate a growth curve.

prostate cancer cells = assay: In cellulo testing, prostate cancer; format: cell-based
Procedure: (§2) Cell Culture: All the cell lines used were cultured at 37° C. in 5% CO2. HEK293T and MDA were maintained in Dulbecco's Modified Eagle Medium (DMEM) (Wisent Bio) with 10% fetal bovine serum (FBS) (Gibco). SUM159 was maintained in Ham's F-12 media with 5% FBS, 5 μg/mL insulin and 1 μg/mL hydrocortisone (Wisent Bio). HPAF-II was maintained in Eagle's Minimum Essential Medium (EMEM) (Wisent Bio) with 10% FBS. PC-3 was maintained in F-12K medium with 10% FBS.
as §1

[1] = target: Polo-like Kinase-1 (PLK1) (Homo sapiens, UniProt P53350); assay: Kinase profiling / inhibition of PLK1; format: biochemical; conditions: panel of 50 kinases
From the text: (§3) As expected, at these high concentrations, the relative % of inhibition is saturated at nearly 100% for both CDK4 and CDK6. To validate CDK4/6 and PLK1 as functional KP108 targets, we then assessed CDK4-mediated Rb phosphorylation (Ser780) and PLK1-mediated autophosphorylation (Thr210) in vitro.
(§4) […] This was outsourced to Reaction Biology Corporation, a biopharmaceutical company focused on the development of kinase inhibitors (http://www.reactionbiology.com/webapps/site/).

SUM149 TNBC cells = assay: In vitro growth inhibition (SRB), SUM149; format: cell-based
Procedure: as §1

[2] = test system: panel of 50 different kinases; assay: Kinase profiling against a panel of 50 kinases at 100 nM; format: biochemical; conditions: 100 nM range, except PLK1
From the text: as §3, §4

CDK6/cyclin D3 = CDK6/cyclin D3 (Homo sapiens, UniProt Q00534); assay: In vitro kinase assay, CDK6/cyclin D3; format: biochemical
From the text: (§5) In vitro kinase profiling: To assess on-target and off-target kinase affinity and specificity of our lead inhibitor KP108 in a full kinome profiling, we will test the lead compound against Reaction Biology Corporation four panels (Wild Type. Panel (374 kinases), Mutant Panel (232 kinases), Atypical Panel (20 kinases), Lipid Panel (17 lipid kinases). This was outsourced to Reaction Biology Corporation, a biopharmaceutical company focused on the development of kinase inhibitors (http://www.reactionbiology.com/webapps/site/).

[3] = test system: Rb-positive SUM159 TNBC cells; assay: Apoptosis assay (AnnexinV/PI), SUM159; format: cell-based, human
Procedure: (§6) Apoptosis assay: Apoptotic rates were analyzed and quantified by flow cytometry following AnnexinV/PI staining on SUM159 and MDA-MB-468 breast cancer cells.

[4] = test system: CDK4-mediated Rb phosphorylation (Ser780); assay: Immunoblotting of Rb phosphorylation in TNBC cells; format: cell-based
From the text: as §3
(§7) As PLK1 is overexpressed in 80% of metastatic breast cancers and the fact that it acts by blocking the G2-M phase of the cell cycle, this provides an attractive added value for KP108, further expanding its potential tumor growth inhibitory capacity.
(§8) Western Blot After washing the infected cells with ice-cold PBS twice, 300 μL of ice-cold cell lysis buffer (1M Tris-HCl, 5M NaCl, 10% Triton, 100 mM EDTA, 100 mM Na3VO4, ×100 Protease Inhibitor, 10× Phosphatase Inhibitor) was added to the dish. All the adherent cells were scraped off the dish and the cell suspension were transferred to a microcentrifuge tube. The cell suspension was left to incubated on ice for 10 min and the cell lysate mixture was centrifuge at 12,000 RPM for 20 mins at 4° C. The supernatant was transferred to a new microcentrifuge tube on ice. The protein concentration was determined using the BCA Kit (ThermoFisher). The lysate samples were diluted in 5×SDS Buffer and were heated at 95° C. for 5 min. The ladder and the samples were loaded into the wells of a SDS PAGE gel and the gel was then run at 100V. […]

CDK4/cyclin D3 = CDK4/cyclin D3 (Homo sapiens, UniProt P11802); assay: In vitro kinase assay, CDK4/cyclin D3; format: biochemical
From the text: as §5

[5] = test system: cell lines representing different models of solid tumors (breast, prostate and pancreatic cancers); assay: Growth inhibition in cell lines representing different solid tumors; format: cell-based; conditions: all tumor types tested: breast
Procedure: as §1

SUM159 lung metastasis = assay: Preclinical lung metastasis model (tail vein injection of TNBC cells); format: in vivo; conditions: NSG mice, daily I.P. 50 mg/kg for 2 weeks
Procedure: To then functionally assess our lead in a preclinical model of tumor metastasis, immune-deficient non-obese diabetic scid gamma (NSG) mice were injected intravenously with 10^6 TNBC cells. […] Lungs were collected and stained with Bouin's solution and, the numbers of lung metastatic nodules were quantified. In vivo studies: All mice were housed and handled in accordance to the approved guidelines of the Canadian Council on Animal Care (CCAC) “Guide to the Care and Use of Experimental Animals” and under the conditions and procedures approved by the Animal Care Committee of McGill University (AUP #7497). The NSG mouse breeders were purchased from Jackson Laboratory (California, US). Female and male NSG mice between 7 and 9 weeks of age were bred and maintained in the animal facility of the Research Institute of the McGill University Health Center, as per the guidelines of the McGill University Animal Care Committee. Intravenous injection model: cells (1×106/each) were injected by tail vein route to develop lung metastases. The mice were euthanized with a maximum of 42-day (SUM159) post cancer cells injection. The lung tissues were counted for metastases nodules post Bouin's solution fixation.

[6] = test system: SUM159 triple negative breast cancer cells; assay: ALDH+ cancer stem cell numbers (ALDEFLUOR, flow cytometry), SUM159; format: cell-based, human; conditions: TNBC (SUM159); equimolar concentrations vs existing CDK4/6 inhibitors
Procedure: Flow cytometry was used to measure the ALDH+ CSC numbers, as previously described^6,11-13. […] As a result, KP108 was further selected as the first lead compound.
ALDEFLUOR assay was performed as described in the manufacturer's protocol, 1×10^6 SUM159 cells were centrifuged and resuspended in 1 ml ALDH assay buffer. 5 μl substrate was added into the cell suspension. For negative control, 500 μl cell suspension were then transferred into a new tube containing 5 μl DEAB. Cells were then incubated for 40 min at 37° C. Percentage of ALDH+ cells were analyzed with Accuri C6 flow cytometer and Flowjo software.

[7] = test system: Rb-deficient MDA-MB-438 cell line; assay: In vitro growth inhibition (SRB), Rb-deficient MDA-MB-438; format: cell-based
Procedure: as §1

[8] = test system: CSCs (tumorsphere formation); assay: Tumorsphere assay; format: cell-based; conditions: in vitro
Procedure: Tumorsphere assays: Monolayer cells were enzymatically dissociated into single cells with trypsin-EDTA. Cells were plated at 10,000 cells per well in a 24-well low-attachment plate (Coming). Cells were grown for 7 days in DMEM/F12 supplemented with B27 (Invitrogen) in the presence of 10 ng/ml EGF and 10 ng/ml bFGF. Tumorsphere-forming efficiency was calculated as the number of spheres divided by the number of singles cells seeded, expressed as a percentage.

[9] = test system: PLK1-mediated autophosphorylation (Thr210); assay: Immunoblotting of PLK1 autophosphorylation in TNBC cells; format: cell-based
From the text: as §3, §7, §8

[10] = test system: SUM159 Rb-positive TNBC cells; assay: Cell cycle progression, Rb-positive TNBC cells; format: cell-based, human
[11] = test system: Rb-deficient MDA-MB-468 TNBC cells; assay: Apoptosis assay (AnnexinV/PI), MDA-MB-468; format: cell-based
Procedure: as §6

pancreatic cancer cells = assay: In cellulo testing, pancreatic cancer; format: cell-based
Procedure: as §2, §1

[12] = test system: MDA-MB-468 Rb-deficient TNBC cells; assay: Cell cycle progression, Rb-deficient TNBC cells; format: cell-based
[13] = test system: SKBR3 HER2+ breast cancer cells; assay: ALDH+ cancer stem cell numbers (ALDEFLUOR, flow cytometry), SKBR3; format: cell-based; conditions: equimolar concentrations vs existing CDK4/6 inhibitors
PLK family members = assay: Effects on PLK family members; format: biochemical

CDK4/cyclin D3, sequence (P11802 whole entry): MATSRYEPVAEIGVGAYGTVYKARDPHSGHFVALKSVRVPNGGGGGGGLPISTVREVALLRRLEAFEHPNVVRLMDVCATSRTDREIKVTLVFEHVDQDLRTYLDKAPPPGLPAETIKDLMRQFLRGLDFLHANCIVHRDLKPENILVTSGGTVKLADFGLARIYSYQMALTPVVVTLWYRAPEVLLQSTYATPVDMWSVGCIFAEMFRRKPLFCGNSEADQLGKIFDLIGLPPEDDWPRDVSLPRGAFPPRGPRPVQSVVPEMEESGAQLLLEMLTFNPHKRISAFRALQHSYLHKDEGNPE
CDK4/cyclin D3, sequence (P30281 whole entry partner): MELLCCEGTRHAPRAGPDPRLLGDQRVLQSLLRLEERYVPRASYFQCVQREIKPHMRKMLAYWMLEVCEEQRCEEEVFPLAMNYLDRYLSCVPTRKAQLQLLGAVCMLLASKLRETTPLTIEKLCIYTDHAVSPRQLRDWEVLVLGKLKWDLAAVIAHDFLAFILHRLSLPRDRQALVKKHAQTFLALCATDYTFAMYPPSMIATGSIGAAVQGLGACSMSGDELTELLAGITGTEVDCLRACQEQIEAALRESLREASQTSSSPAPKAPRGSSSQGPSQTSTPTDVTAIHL
Polo-like Kinase-1 (PLK1), sequence (P53350 whole entry): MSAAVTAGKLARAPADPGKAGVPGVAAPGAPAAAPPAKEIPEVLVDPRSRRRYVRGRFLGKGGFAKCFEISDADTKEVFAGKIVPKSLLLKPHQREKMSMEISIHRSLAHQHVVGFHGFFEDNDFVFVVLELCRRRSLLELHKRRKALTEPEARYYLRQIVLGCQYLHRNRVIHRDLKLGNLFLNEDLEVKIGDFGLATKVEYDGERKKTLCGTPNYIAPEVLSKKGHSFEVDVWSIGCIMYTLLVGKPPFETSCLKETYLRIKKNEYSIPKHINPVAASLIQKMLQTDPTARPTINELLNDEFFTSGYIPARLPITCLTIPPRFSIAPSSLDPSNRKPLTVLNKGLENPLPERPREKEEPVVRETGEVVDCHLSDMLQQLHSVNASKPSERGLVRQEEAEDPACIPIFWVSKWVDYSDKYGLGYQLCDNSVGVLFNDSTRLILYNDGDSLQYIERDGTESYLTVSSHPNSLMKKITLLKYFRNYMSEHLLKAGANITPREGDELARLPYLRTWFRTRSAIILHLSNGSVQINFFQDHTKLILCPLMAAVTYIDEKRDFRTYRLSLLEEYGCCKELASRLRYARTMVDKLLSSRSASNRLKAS
CDK6/cyclin D3, sequence (Q00534 whole entry): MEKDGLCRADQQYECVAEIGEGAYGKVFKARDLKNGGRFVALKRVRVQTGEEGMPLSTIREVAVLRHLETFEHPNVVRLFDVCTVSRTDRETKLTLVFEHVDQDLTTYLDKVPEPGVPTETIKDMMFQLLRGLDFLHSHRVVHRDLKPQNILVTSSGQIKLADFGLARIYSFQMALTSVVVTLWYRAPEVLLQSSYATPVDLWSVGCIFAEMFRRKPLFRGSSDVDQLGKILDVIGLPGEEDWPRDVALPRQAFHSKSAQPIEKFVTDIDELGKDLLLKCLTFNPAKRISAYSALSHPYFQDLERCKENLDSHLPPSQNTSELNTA
CDK6/cyclin D3, sequence (P30281 whole entry partner): as the sequence (P30281 whole entry partner) above

## C=CC(=O)Nc1ccc(C(=O)N2CCN(c3ccc(Nc4ncc5c(C)c(C(C)=O)c(=O)n(C6CCCC6)c5n4)nc3)CC2)cc1 [KP108, N-(4-(4-(6-((6-acetyl-8-cyclopentyl-5-methyl-7-oxo-7,8-dihydropyrido[2,3-d]pyrimidin-2-yl)amino}pyridin-3-yl)piperazine-1-carbonyl)phenyl)acrylamide]
MDA-MB-231 TNBC cells
  activity in cellulo: great activity in cellulo
SUM159 TNBC xenografts; NSG mice, i.p. daily for two weeks, 50 mg/kg
  primary tumor development (tumor volume): great efficacy and sustained activity; also recorded: great efficacy in preventing primary tumor development
SUM159 TNBC xenografts; after end of the two-week 50 mg/kg i.p. treatment
  tumor growth once injections were stopped: growth inhibitory effects sustained over time, even once injections were stopped
SUM159 TNBC xenografts; treated mice, 50 mg/kg i.p. daily
  animal health / weight: did not affected animal health
Prostate cancer cells
  activity in cellulo: very active
[1]
  inhibition of PLK1: efficiently inhibit; also recorded: highlighting PLK1 as a potential KP108 target
SUM149 TNBC cells
  activity in cellulo: great activity in cellulo
[2]
  off-target cross-reactivity in kinase panel: no or little cross-reactivity
CDK6/cyclin D3; in vitro kinase assay
  IC50: 20.4 nM
CDK6/cyclin D3; kinase panel, 100 nM range
  relative % of inhibition, CDK6: ~100%
[3]
  pro-apoptotic effect: significant pro-apoptotic effect
[4]
  block of Rb phosphorylation (Ser780): efficiently block phosphorylation
CDK4/cyclin D3; CDK4 vs CDK6
  selectivity to CDK4 than CDK6: 26 times
CDK4/cyclin D3; in vitro kinase assay
  IC50: 0.77 nM
CDK4/cyclin D3; kinase panel, 100 nM range
  relative % of inhibition, CDK4: ~100%
[5]
  IC50 compared with palbociclib: lower IC50in all tumor types tested
SUM159 lung metastasis
  lung colonization / lung metastatic nodules: great efficacy and sustained activity; also recorded: significantly prevented, to almost completely block lung colonization
[6]
  elimination of ALDH+ CSCs: significant superior efficacy; also recorded: nearly maximal efficacy
[7]
  activity in cellulo: great activity in cellulo
[8]
  reduction of tumorsphere formation: superior efficacy in reducing tumorsphere formation
[9]
  block of PLK1 autophosphorylation (Thr210): efficiently block phosphorylation
[10]
  effect on cell cycle progression: induce G1 arrest
[11]
  pro-apoptotic effect: significant pro-apoptotic effect; also recorded: almost complete cell death
Pancreatic cancer cells
  activity in cellulo: very active
[12]
  effect on cell cycle progression: efficiently induce G2 arrest; also recorded: dose-dependent increase in the G2 phase
[13]
  elimination of ALDH+ CSCs: significant superior efficacy; also recorded: nearly maximal efficacy
PLK family members
  effects on other PLK family members: only targets PLK1
